The supplement of paper PMC10307832

Assays:
Test in all cases: relative viability (nuclei count vs DMSO), 5 days (fraction); higher = more cells survive
[1] = tested on: NCI-H1793
Outline: (§1)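 One day after seeding in 1536-well plates, lung cancer cell lines were dosed by pin tool. Dosing was either single-drug or a fixed anchor-drug dose plus five library-drug doses (not always all listed) in √10 steps. After 5 days, nuclei were stained in one fix-and-stain step and counted on 4× images, and relative viability is the nuclei count of treated wells over that of vehicle wells, given as the median of duplicate plates.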

[2] = tested on: NCI-H23
Outline: as §1

[3] = tested on: HARA
Outline: as §1

[4] = tested on: LC-2-ad
Outline: as §1

[5] = tested on: NCI-H2023
Outline: as §1

[6] = tested on: HCC-78
Outline: as §1

[7] = tested on: NCI-H2009
Outline: as §1

[8] = tested on: NCI-H2228
Outline: as §1

[9] = tested on: COR-L23
Outline: as §1

[10] = tested on: HCC-15
Outline: as §1

[11] = tested on: NCI-H1944
Outline: as §1

[12] = tested on: ChaGo-K-1
Outline: as §1

[13] = tested on: A-427
Outline: as §1

[14] = tested on: SK-LU-1
Outline: as §1

[15] = tested on: HCC-366
Outline: as §1

[16] = tested on: NCI-H838
Outline: as §1

[17] = tested on: NCI-H2405
Outline: as §1

[18] = tested on: ABC-1
Outline: as §1

[19] = tested on: EMC-BAC-2
Outline: as §1

[20] = tested on: LK-2
Outline: as §1

[21] = tested on: NCI-H1650
Outline: as §1

[22] = tested on: NCI-H1993
Outline: as §1

[23] = tested on: UMC-11
Outline: as §1

[24] = tested on: NCI-H1734
Outline: as §1

Compound CC(C)Oc1cc(Nc2nc(N[C@@H](C)c3ccc(F)cn3)ncc2Cl)n[nH]1 [AZ23] + COc1cc2c(Oc3ccc(NC(=O)C4(C(=O)Nc5ccc(F)cc5)CC4)cc3F)ccnc2cc1OCCCN1CCOCC1 [Foretinib] (partner 0.25 µM) has a relative viability ([1]; first compound 0.01 µM) of 0.879, a relative viability ([1]; first compound 0.03162 µM) of 0.859 and a relative viability ([1]; first compound 0.3162 µM) of 0.713. The relative viability ([2]; first compound 0.03162 µM) was 1.07, the relative viability ([2]; first compound 0.3162 µM) was 0.596 and the relative viability ([3]; first compound 0.03162 µM) was 1.04. It also gave a relative viability ([3]; first compound 0.3162 µM) of 0.783, a relative viability ([4]; first compound 0.01 µM) of 1.07 and a relative viability ([4]; first compound 0.03162 µM) of 0.993. The relative viability ([4]; first compound 0.3162 µM) was 1.02, the relative viability ([5]; first compound 0.03162 µM) was 0.88 and the relative viability ([5]; first compound 0.3162 µM) was 0.924. The relative viability ([6]; first compound 0.01 µM) was 0.588, the relative viability ([6]; first compound 0.03162 µM) was 0.52 and the relative viability ([6]; first compound 0.3162 µM) was 0.547. It also gave a relative viability ([7]; first compound 0.01 µM) of 1.23, a relative viability ([7]; first compound 0.03162 µM) of 1.26 and a relative viability ([7]; first compound 0.3162 µM) of 1.23. For the same compound, the relative viability ([8]; first compound 0.01 µM) was 1.06, the relative viability ([8]; first compound 0.03162 µM) was 1.26 and the relative viability ([8]; first compound 0.3162 µM) was 0.875. For the same compound, the relative viability ([9]; first compound 0.01 µM) was 1.09, the relative viability ([9]; first compound 0.03162 µM) was 1.02 and the relative viability ([9]; first compound 0.3162 µM) was 1.11. For the same compound, the relative viability ([10]; first compound 0.01 µM) was 1.16, the relative viability ([10]; first compound 0.03162 µM) was 1.09 and the relative viability ([10]; first compound 0.3162 µM) was 1.05. The relative viability ([11]; first compound 0.01 µM) was 0.811, the relative viability ([11]; first compound 0.03162 µM) was 0.954 and the relative viability ([11]; first compound 0.3162 µM) was 0.864. The relative viability ([12]; first compound 0.01 µM) was 1.17, the relative viability ([12]; first compound 0.03162 µM) was 0.906 and the relative viability ([12]; first compound 0.3162 µM) was 0.95. The relative viability ([13]; first compound 0.01 µM) was 1, the relative viability ([13]; first compound 0.03162 µM) was 1.05 and the relative viability ([13]; first compound 0.3162 µM) was 1.07. The relative viability ([14]; first compound 0.03162 µM) was 0.969, the relative viability ([14]; first compound 0.3162 µM) was 0.821 and the relative viability ([15]; first compound 0.01 µM) was 1.13. It also gave a relative viability ([15]; first compound 0.03162 µM) of 0.995, a relative viability ([15]; first compound 0.3162 µM) of 0.933 and a relative viability ([16]; first compound 0.01 µM) of 1.24. For the same compound, the relative viability ([16]; first compound 0.03162 µM) was 1.14, the relative viability ([16]; first compound 0.3162 µM) was 0.994 and the relative viability ([17]; first compound 0.01 µM) was 1.04. It also gave a relative viability ([17]; first compound 0.03162 µM) of 1.05, a relative viability ([17]; first compound 0.3162 µM) of 1.04 and a relative viability ([18]; first compound 0.01 µM) of 1.03. It also gave a relative viability ([18]; first compound 0.03162 µM) of 1.04, a relative viability ([18]; first compound 0.3162 µM) of 1.02 and a relative viability ([19]; first compound 0.01 µM) of 1.12. The relative viability ([19]; first compound 0.03162 µM) was 1.06, the relative viability ([19]; first compound 0.3162 µM) was 0.989 and the relative viability ([20]; first compound 0.01 µM) was 1.15. For the same compound, the relative viability ([20]; first compound 0.03162 µM) was 1.38, the relative viability ([20]; first compound 0.3162 µM) was 0.706 and the relative viability ([21]; first compound 0.03162 µM) was 1.51. For the same compound, the relative viability ([21]; first compound 0.3162 µM) was 1.23, the relative viability ([22]; first compound 0.01 µM) was 0.66 and the relative viability ([22]; first compound 0.03162 µM) was 0.725. The relative viability ([22]; first compound 0.3162 µM) was 0.753, the relative viability ([23]; first compound 0.01 µM) was 1.08 and the relative viability ([23]; first compound 0.03162 µM) was 1.15. It also gave a relative viability ([23]; first compound 0.3162 µM) of 0.951, a relative viability ([24]; first compound 0.01 µM) of 0.803 and a relative viability ([24]; first compound 0.03162 µM) of 0.872. For the same compound, the relative viability ([24]; first compound 0.3162 µM) was 0.796.
